Experimental data from patent publication US20100076015A1, “Aminopyridine Derivatives” (VANTIA LIMITED, priority 2008, published 2010).

Target: T1, Human KLK1 (Homo sapiens, UniProt P06870)
T1 construct: purchased Callbiochem (Calbiochem)
Experiment: Determination of the IC50 for KLK1 (fluorogenic substrate H-DVal-Leu-Arg-AFC)
Format: biochemical
Conditions: 37° C.
How it was run: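 Human KLK1 incubated at 37 °C with fluorogenic substrate H-DVal-Leu-Arg-AFC and a range of test compound concentrations. Residual activity was taken as initial reaction rate from absorbance change at 410 nm, and the IC50 derived from it.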

T1 sequence (P06870 25-262): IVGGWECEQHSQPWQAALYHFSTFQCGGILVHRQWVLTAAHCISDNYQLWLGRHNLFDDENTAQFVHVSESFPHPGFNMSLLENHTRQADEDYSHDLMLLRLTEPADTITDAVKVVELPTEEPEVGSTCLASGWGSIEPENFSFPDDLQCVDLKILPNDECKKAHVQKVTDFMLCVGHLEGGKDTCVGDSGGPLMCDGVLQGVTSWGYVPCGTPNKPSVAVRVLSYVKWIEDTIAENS

IC50 | SMILES
0.0093 µM | Nc1ccc(CNC(=O)[C@H](Cc2cccc(Cl)c2)NC(=O)CN2CCCCC2)cn1 [Example 412, (S)—N-(6-Amino-pyridin-3-ylmethyl)-3-(3-chloro-phenyl)-2-(2-piperidin-1-yl-acetylamino)-propionamide]
0.0291 µM | CCCCN(C)[C@@H](C)C(=O)N[C@@H](Cc1ccc(F)cc1)C(=O)NCc1ccc(N)nc1 [Example 369, (S)—N-[(S)-1-[(6-Amino-pyridin-3-ylmethyl)-carbamoyl]-2-(4-fluoro-phenyl)-ethyl]-2-(butyl-methyl-amino)-propionamide]
0.032 µM | Nc1ccc(CNC(=O)[C@H](Cc2ccc(F)cc2)NC(=O)c2cc3cc(F)ccc3[nH]2)cn1 [Example 331, 5-Fluoro-1H-indole-2-carboxylic acid [(S)-1-[(6-amino-pyridin-3-ylmethyl)-carbamoyl]-2-(4-fluoro-phenyl)-ethyl]-amide]
0.24 µM | Cc1nc(N)ccc1CNC(=O)[C@H](Cc1cccc2ccccc12)NC(=O)c1cc2ccccc2[nH]1 [Example 303, 1H-Indole-2-carboxylic acid {(S)-1-[(6-amino-2-methyl-pyridin-3-ylmethyl)-carbamoyl]-2-naphthalen-1-yl-ethyl}-amide]
0.0442 µM | CN(C)[C@H](Cc1ccccc1)C(=O)N[C@@H](CC1CCCC2CCCCC21)C(=O)NCc1ccc(N)nc1 (stereo partly drawn) [Example 397, (R)—N-[(S)-1-[(6-Amino-pyridin-3-ylmethyl)-carbamoyl]-2-(decahydro-naphthalen-1-yl)-ethyl]-2-dimethylamino-3-phenyl-propionamide]
0.0459 µM | CCCN(C)[C@@H](C)C(=O)N[C@@H](CC1CCCCC1)C(=O)NCc1ccc(N)nc1 [Example 383, (S)—N-{(S)-1-[(6-Amino-pyridin-3-ylmethyl)-carbamoyl]-2-cyclohexyl-ethyl}-2-(methyl-propyl-amino)-propionamide]
0.184 µM | Nc1ccc(CNC(=O)[C@H](Cc2ccc(F)cc2)NC(=O)c2nc3ccccc3[nH]2)cn1 [Example 333, 1H-Benzoimidazole-2-carboxylic acid [(S)-1-[(6-amino-pyridin-3-ylmethyl)-carbamoyl]-2-(4-fluoro-phenyl)-ethyl]-amide]
0.0285 µM | CC(C)N(C(C)C)[C@@H](C)C(=O)N[C@@H](Cc1ccc(F)c(F)c1)C(=O)NCc1ccc(N)nc1 [Example 350, (S)—N-[(S)-1-[(6-Amino-pyridin-3-ylmethyl)-carbamoyl]-2-(3,4-difluoro-phenyl)-ethyl]-2-diisopropylamino-propionamide]
0.0099 µM | CCN(CC)CC(=O)N[C@@H](Cc1ccc(F)cc1)C(=O)NCc1ccc(N)nc1C [Example 428, (S)—N-(6-Amino-2-methyl-pyridin-3-ylmethyl)-2-(2-diethylamino-acetylamino)-3-(4-fluoro-phenyl)-propionamide]
0.0401 µM | Cc1ccc(-c2ccc(C(=O)N[C@@H](Cc3cccc(Cl)c3)C(=O)NCc3ccc(N)nc3)[nH]2)cc1 [Example 297, 5-p-Tolyl-1H-pyrrole-2-carboxylic acid [(S)-1-[(6-amino-pyridin-3-ylmethyl)-carbamoyl]-2-(3-chloro-phenyl)-ethyl]-amide]
0.0013 µM | Cc1cc(C)c(C(=O)N[C@@H](Cc2ccccc2C(F)(F)F)C(=O)NCc2ccc(N)nc2C)[nH]1 [Example 282, 3,5-Dimethyl-1H-pyrrole-2-carboxylic acid [(S)-1-[(6-amino-2-methyl-pyridin-3-ylmethyl)-carbamoyl]-2-(2-trifluoromethyl-phenyl)-ethyl]-amide]
0.128 µM | Cc1cc(C)c(C(=O)N[C@@H](Cc2c(F)c(F)c(F)c(F)c2F)C(=O)NCc2ccc(N)nc2)[nH]1 [Example 251, 3,5-Dimethyl-1H-pyrrole-2-carboxylic acid {(S)-1-[(6-amino-pyridin-3-ylmethyl)-carbamoyl]-2-pentafluorophenyl-ethyl}-amide]
0.106 µM | CC(C)C[C@H](NC(=O)[C@H](C)N(C)C(C)C)C(=O)NCc1ccc(N)nc1 [Example 427, (S)-2-[(S)-2-(Isopropyl-methyl-amino)-propionylamino]-4-methyl-pentanoic acid (6-amino-pyridin-3-ylmethyl)-amide]
0.299 µM | Nc1ccc(CNC(=O)[C@H](Cc2c(F)c(F)c(F)c(F)c2F)NC(=O)c2cc3ccccc3[nH]2)cn1 [Example 329, 1H-Indole-2-carboxylic acid {(S)-1-[(6-amino-pyridin-3-ylmethyl)-carbamoyl]-2-pentafluorophenyl-ethyl}-amide]
0.107 µM | CCCN(CCC)[C@@H](C)C(=O)N[C@@H](CC1CCCCC1)C(=O)NCc1ccc(N)nc1 [Example 385, (S)—N-{(S)-1-[(6-Amino-pyridin-3-ylmethyl)-carbamoyl]-2-cyclohexyl-ethyl}-2-dipropylaminopropionamide]

Continued, molecule first:

SMILES | IC50
CC(C)N1CCC[C@@H]1C(=O)N[C@@H](Cc1ccc(Cl)c(Cl)c1)C(=O)NCc1ccc(N)nc1 [Example 117, (R)-1-Isopropyl-pyrrolidine-2-carboxylic acid [(S)-1-[(6-amino-pyridin-3-ylmethyl)-carbamoyl]-2-(3,4-dichloro-phenyl)-ethyl]-amide] | 0.00045 µM
Cc1nc(N)ccc1CNC(=O)[C@H](Cc1ccc(Cl)c(Cl)c1)NC(=O)[C@H](N)CC1CCCCC1 [Example 200, (R)-2-Amino-N-[(S)-1-[(6-amino-2-methyl-pyridin-3-ylmethyl)-carbamoyl]-2-(3,4-dichloro-phenyl)-ethyl]-3-cyclohexyl-propionamide] | 0.0221 µM
Nc1ccc(CNC(=O)[C@H](Cc2ccc(F)c(F)c2)NC(=O)CN2CCCc3ccccc32)cn1 [Example 173, (S)—N-(6-Amino-pyridin-3-ylmethyl)-3-(3,4-difluoro-phenyl)-2-(2-3,4-dihydro-2H-quinolin-1-yl-acetylamino)-propionamide] | 0.0783 µM
Cc1nc(N)ccc1CNC(=O)[C@H](Cc1ccc(Cl)c(Cl)c1)NC(=O)[C@H](N)Cc1cccnc1 [Example 196, (R)-2-Amino-N-[(S)-1-[(6-amino-2-methyl-pyridin-3-ylmethyl)-carbamoyl]-2-(3,4-dichloro-phenyl)-ethyl]-3-pyridin-3-yl-propionamide] | 0.0232 µM
CN1CCCC[C@@H]1C(=O)N[C@@H](Cc1ccc(F)c(F)c1)C(=O)NCc1ccc(N)nc1 [Example 144, (R)-1-Methyl-piperidine-2-carboxylic acid [(S)-1-[(6-amino-pyridin-3-ylmethyl)-carbamoyl]-2-(3,4-difluoro-phenyl)-ethyl]-amide] | 0.0209 µM
CCC(C)[C@@H](NC)C(=O)N[C@@H](Cc1cccc2ccccc12)C(=O)NCc1ccc(N)nc1C (stereo partly drawn) [Example 203, (R)-3-Methyl-2-methylamino-pentanoic acid {(S)-1-[(6-amino-2-methyl-pyridin-3-ylmethyl)-carbamoyl]-2-naphthalen-1-yl-ethyl}-amide] | 0.0045 µM
CN(CC(=O)N[C@@H](Cc1ccc(F)c(F)c1)C(=O)NCc1ccc(N)nc1)CC1CCCCC1 [Example 169, (S)—N-(6-Amino-pyridin-3-ylmethyl)-2-[2-(cyclohexylmethyl-methyl-amino)-acetylamino]-3-(3,4-difluoro-phenyl)-propionamide] | 0.334 µM
Nc1ccc(CNC(=O)[C@H](Cc2ccc(F)c(F)c2)NC(=O)CNCCc2ccccc2)cn1 [Example 160, (S)—N-(6-Amino-pyridin-3-ylmethyl)-3-(3,4-difluoro-phenyl)-2-(2-phenethylamino-acetylamino)-propionamide] | 0.185 µM
CC(C)N1CCC[C@@H]1C(=O)N[C@@H](Cc1ccccc1Cl)C(=O)NCc1ccc(N)nc1 [Example 126, (R)-1-Isopropyl-pyrrolidine-2-carboxylic acid [(S)-1-[(6-amino-pyridin-3-ylmethyl)-carbamoyl]-2-(2-chloro-phenyl)-ethyl]-amide] | 0.0093 µM
CC(C)N1CCCC[C@@H]1C(=O)N[C@@H](Cc1ccc(F)c(F)c1)C(=O)NCc1ccc(N)nc1 [Example 146, (R)-1-Isopropyl-piperidine-2-carboxylic acid [(S)-1-[(6-amino-pyridin-3-ylmethyl)-carbamoyl]-2-(3,4-difluoro-phenyl)-ethyl]-amide] | 0.102 µM
CCC(C)[C@@H](NC)C(=O)N[C@H](Cc1ccc(Cl)c(Cl)c1)C(=O)NCc1ccc(N)nc1C (stereo partly drawn) [Example 188, (2R)-3-Methyl-2-methylamino-pentanoic acid [(R)-1-[(6-amino-2-methyl-pyridin-3-ylmethyl)-carbamoyl]-2-(3,4-dichloro-phenyl)-ethyl]-amide] | 0.0012 µM
CCC(C)[C@@H](NC)C(=O)N[C@@H](Cc1ccc(C(C)(C)C)cc1)C(=O)NCc1ccc(N)nc1 (stereo partly drawn) [Example 52, (R)-3-Methyl-2-methylamino-pentanoic acid [(S)-1-[(6-amino-pyridin-3-ylmethyl)-carbamoyl]-2-(4-tert-butyl-phenyl)-ethyl]-amide] | 0.0245 µM
Cc1cc(C)c(C(=O)N[C@@H](Cc2c[nH]c3ccccc23)C(=O)NCc2ccc(N)nc2)[nH]1 [Example 241, 3,5-Dimethyl-1H-pyrrole-2-carboxylic acid [(S)-1-[(6-amino-pyridin-3-ylmethyl)-carbamoyl]-2-(1H-indol-3-yl)-ethyl]-amide] | 0.0038 µM
CN1CCC[C@@H]1C(=O)N[C@@H](Cc1ccc(Cl)cc1)C(=O)NCc1ccc(N)nc1 [Example 93, (R)-1-Methyl-pyrrolidine-2-carboxylic acid [(S)-1-[(6-amino-pyridin-3-ylmethyl)-carbamoyl]-2-(4-chloro-phenyl)-ethyl]-amide] | 0.00085 µM
CC(C)CN(C)[C@@H](C)C(=O)N[C@@H](Cc1ccc(F)c(F)c1)C(=O)NCc1ccc(N)nc1 [Example 177, (S)—N-[(S)-1-[(6-Amino-pyridin-3-ylmethyl)-carbamoyl]-2-(3,4-difluoro-phenyl)-ethyl]-2-(isobutyl-methyl-amino)-propionamide] | 0.0019 µM
CC(C)N(C)[C@H](C)C(=O)N[C@@H](Cc1ccc(F)cc1)C(=O)NCc1ccc(N)nc1 [Example 180, (R)—N-[(S)-1-[(6-Amino-pyridin-3-ylmethyl)-carbamoyl]-2-(4-fluoro-phenyl)-ethyl]-2-(isopropyl-methyl-amino)-propionamide] | 0.0079 µM
